Entries after “also recorded” stand apart in the source; their conditions may differ. Where no end group is shown, it is not given here.
Legend:
wild-type (WT) mice = assay: In vivo eccentric contraction-induced injury in wild-type mice (gastrocnemius); parameters: species or system mouse
Method: WT mice were treated in vivo with either vehicle, or a combination of colchicine and apocynin. Following treatment, the gastrocnemius muscle was assayed for susceptibility to in vivo eccentric contraction injury.
(§2) Anaesthetized mice (isoflurane) were placed on a thermostatically controlled table, the knee was fixed with a pin and the foot was firmly fixed to a footplate on the motor shaft. Contraction was elicited by percutaneous electrical stimulation of the sciatic nerve. Optimal isometric tetanic torque was determined with increasing current with a minimum of 30 s between each contraction to avoid fatigue. Eccentric contractions at maximal isometric torque (0.2 ms pulse train at 100 Hz) were assayed for the resistance to muscle damage.
Eccentric contractions were achieved by lengthening the muscle during maximal contraction. This was achieved by translating the footplate 30° at a velocity of 40 mm/s following the first 200 msec of the isometric contraction. This protocol consisted of 20 eccentric contractions with 1 minute pauses in between. The decrease in the peak isometric force prior to the eccentric phase was taken as an indication for muscle damage.

adult mdx mice [1] = assay: In vitro isometric contraction-induced injury of EDL muscle after in vivo treatment; parameters: species or system mouse; conditions: mdx mice treated in vivo (colchicine 1 mg/kg IP 4 hours; apocynin 3 mg/kg IP 3 days), 20 isometric contractions
Method: Following CO2 asphyxiation and cervical dislocation, single EDL muscles were surgically excised with ligatures at each tendon (5-0 silk suture) and mounted in an in vitro bath between a fixed post and force transducer (Aurora 300B-LR) operated in isometric mode. The muscle was maintained in physiological saline solution and maintained at 30° C. under aeration with 95 O2/5 CO2 (%) throughout the experiment. Resting tension, muscle length and stimulation current were iteratively adjusted for each muscle to obtain optimal twitch force. During a 5 minute equilibration, single twitches were elicited at every 30 seconds with electrical pulses (0.5 msec) through platinum electrodes running parallel to the muscle. The injury protocol used to induce a force deficit (39) consisted of 20 maximum isometric contractions (1 sec at 100 Hz) separated by 1 minute. The absolute isometric force of each muscle during the contraction protocol was normalized to the maximum isometric force (Po) produced by the muscle during the 20-contraction protocol.

NOX = molecular target: T1, NOX (Homo sapiens, UniProt P04839); conditions: in muscle; apocynin or its oxidation products; cited from earlier work
T1 construct: host or cells: muscle
T1 sequence (P04839 1-570): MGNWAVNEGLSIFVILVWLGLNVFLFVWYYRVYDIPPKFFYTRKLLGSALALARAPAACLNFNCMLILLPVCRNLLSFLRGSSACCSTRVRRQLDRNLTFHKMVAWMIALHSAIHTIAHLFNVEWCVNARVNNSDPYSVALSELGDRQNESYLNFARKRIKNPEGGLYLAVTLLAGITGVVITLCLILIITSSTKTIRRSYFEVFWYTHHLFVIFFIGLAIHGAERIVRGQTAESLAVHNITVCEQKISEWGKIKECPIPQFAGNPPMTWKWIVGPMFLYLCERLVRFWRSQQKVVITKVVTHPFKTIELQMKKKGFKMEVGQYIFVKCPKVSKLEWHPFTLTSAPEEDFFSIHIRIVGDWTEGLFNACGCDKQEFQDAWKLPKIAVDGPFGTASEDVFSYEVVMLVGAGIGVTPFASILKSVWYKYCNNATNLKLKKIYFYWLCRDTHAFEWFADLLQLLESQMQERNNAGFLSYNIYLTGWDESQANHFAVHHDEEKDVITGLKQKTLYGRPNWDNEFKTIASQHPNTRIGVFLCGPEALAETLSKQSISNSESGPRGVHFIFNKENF

adult mdx mice [2] = assay: In vivo eccentric contraction-induced injury in mdx; conditions: for eccentric contraction induced force loss: colchicine 1 mg/kg IP 4 hours or apocynin 3 mg/kg IP 3 days, 20 eccentric contractions; for eccentric contraction induced force drop (FIG. 13): dimethylaminoparthenolide 50 mg/kg via gavage per day/3 days, Gp91ds-TAT 5 ug/g body weight, 2 doses one day apart
Method: as §2
Eccentric contractions were achieved by lengthening the muscle during maximal contraction. This was achieved by translating the footplate 30° at a velocity of 40 mm/s following the first 200 msec of the isometric contraction. This protocol consisted of 20 eccentric contractions with 1 minute pauses in between. The decrease in the peak isometric force prior to the eccentric phase was taken as an indication for muscle damage. To test the role of X-ROS in the functional status of mdx muscle, adult mdx mice were treated with either colchicine (1 mg/kg IP; 4 hours) or apocynin (3 mg/kg IP; 3 days) in vivo to reduce X-ROS signaling followed by a contraction protocol to produce mechanical stress.

[3] = test system: microtubule network in isolated FDB myofibers; assay: Fluorescence labeling and quantification of α-tubulin (microtubule network density); format: cell-based, mouse; conditions: FDB fibers; colchicine 10 μM, taxol 10 μM
Method: Isolated intact FBDs were plated on ECM gel from Engelbreth-Holm-Swarm murine sarcoma coated imaging dishes (MatTek, Ashland, Mass.). Following treatment, plated myofibers were fixed with 2% paraformaldehyde, permeabilized with 0.1% Triton X-100 in phosphate buffered saline (PBS), blocked in 8% bovine serum albumin in PBS, and then labeled overnight with an antibody to α-tubulin conjugated to Alexa Fluor 488 (anti-mouse; Invitrogen, Carlsbad, Calif., USA). Digital images were obtained with a BioRad Radiance fluorescent laser scanning confocal attached to an Olympus IX-70 inverted microscope. Laser intensity was adjusted on a sample-to-sample basis to maximize amount of microtubules that are visualized. A 35-image Z-stack was taken at 0.5 μm interval and the most representative 9 frames were stacked together using ImageJ (NIH, USA) to form a composite image. Quantification was performed on the binary image representation of the 9-image stack. Background was subtracted uniformly and image was transformed into a binary using ImageJ unbiased binary function. A uniform region of interest was selected and mean intensity measured.

[4] = test system: young wild-type and young mdx FDB muscle fibers; assay: Stretch-induced X-ROS in young fibers after increasing microtubule density; format: cell-based, mouse; conditions: young wild-type or young mdx fibers, taxol 10 μM
Method: All experiments were performed in custom rotating glass-bottom chamber (Four-hour Day Foundation, Towson, Md.) equipped with bath perfusion and mounted on BioRad Radiance fluorescent laser scanning confocal attached to an Olympus IX-70 inverted microscope (Olympus Corp., Centre Valley, Pa.). Cells were attached using micro-tweezers coated with the biological adhesive, MyoTak (Ionoptix, Milton, Mass.) and connected to a high-sensitivity force transducer (KG7) equipped with an anti-oscillation filter and a piezo-electric length controller (World Precision Instruments, Sarasota, Fla.). […]
(§1) Myofibers were attached at both ends by gently closing the MyoTak-coated tweezers without compressing the cell membrane and then lifting the cell from the bottom of the chamber. Cell sarcomere length was monitored using a High-speed Video Sarcomere Length camera (Aurora Scientific, Aurora, ON, CAN) and the voltage into the length controller was adjusted to produce a stretch equal to 10% of resting sarcomere length. The tension signal from the force transducer and positional output from the length controller were recorded at 1 kHz using a 600A data acquisition system from Aurora.
ROS was measured using 6-carboxy-2″,7″-dichlorodihydrofluorescein diacetate (DCFH-DA) (Invitrogen, Carlsbad, Calif.) in dimethyl sulfoxide (DMSO). […] DCF fluorescence signals were processed as described (16). […]

young WT muscle cells = assay: Stretch Ca2+ entry in young fibers after increasing microtubule density; format: cell-based, mouse; conditions: young WT treated with taxol
Method: Similar to DCF measurements, FDBs were suspended in Ringer's solution containing 5 μM fluo-4-AM (Invitrogen, Carlsbad, Ca) for 30 minutes at room temperature. Fluo-4-loaded cells were mounted on MUST and imaged using confocal line-scanning microscopy at 2 ms/line. Fluo-4 signal slopes before stretch and after were measured.

adult mdx FDB myofibers [5] = assay: Stretch-dependent sarcolemmal Ca2+ influx, fluo-4 fluorescence rate; format: cell-based, mouse; conditions: adult mdx FDB fibers, acute stretch, GsMTx4 2.5 μM, colchicine 10 μM
Method: After euthanasia by CO2 inhalation, flexor digitorum brevis (FDB) muscle was harvested bilaterally and incubated in DMEM with 1 μl/ml gentamicin, and 0.4% collagenase A (Roche Applied Science, Indianapolis, Ind., USA) as described. Single intact myofibers were isolated by gentle trituration. The fibers were imaged and/or fixed for immunolabeling within an 8-h period (unless indicated), thus avoiding morphological changes that can occur in FDB fibers that are cultured for a prolonged period. […]
as §1
Similar to DCF measurements, FDBs were suspended in Ringer's solution containing 5 μM fluo-4-AM (Invitrogen, Carlsbad, Ca) for 30 minutes at room temperature. […] Fluo-4 signal slopes before stretch and after were measured.

wild-type FDB fibers [6] = assay: Cytoskeletal stiffness by axial compression, atomic force microscopy; conditions: 10 μM, 2 hrs
adult mdx FDB myofibers [7] = assay: Stretch-induced ROS production (X-ROS), DCF fluorescence, 10% axial stretch (MuST); format: cell-based, mouse; conditions: adult mdx FDB fibers, 10% stretch, gp91dsTAT 2 μM, fulvene-5 5 μM, L-NAME 1 mM, colchicine, nocodozole, latrunculin A 10 μM
Method: After euthanasia by CO2 inhalation, flexor digitorum brevis (FDB) muscle was harvested bilaterally and incubated in DMEM with 1 μl/ml gentamicin, and 0.4% collagenase A (Roche Applied Science, Indianapolis, Ind., USA) as described. Single intact myofibers were isolated by gentle trituration. The fibers were imaged and/or fixed for immunolabeling within an 8-h period (unless indicated), thus avoiding morphological changes that can occur in FDB fibers that are cultured for a prolonged period.
All experiments were performed in custom rotating glass-bottom chamber (Four-hour Day Foundation, Towson, Md.) equipped with bath perfusion and mounted on BioRad Radiance fluorescent laser scanning confocal attached to an Olympus IX-70 inverted microscope (Olympus Corp., Centre Valley, Pa.). Cells were attached using micro-tweezers coated with the biological adhesive, MyoTak (Ionoptix, Milton, Mass.) and connected to a high-sensitivity force transducer (KG7) equipped with an anti-oscillation filter and a piezo-electric length controller (World Precision Instruments, Sarasota, Fla.). The force transducer and length controller were mounted on folded motorized micromanipulators (Siskiyou, Grants Pass, Oreg.) allowing to place the tweezers above the cell of interest. The rotating chamber, the tweezer-equipped force transducer and length controller and the micromanipulators formed the Muscle Stretch Tool (MUST).
as §1
ROS was measured using 6-carboxy-2″,7″-dichlorodihydrofluorescein diacetate (DCFH-DA) (Invitrogen, Carlsbad, Calif.) in dimethyl sulfoxide (DMSO). FDB fibers were suspended in HEPES-buffered Ringer's solution containing (in mM): 140 NaCl, 4.0 KCl, 1.0 MgSO4, 5.0 NaHCO3, 10.0 glucose, 10.0 HEPES at pH 7.3 and incubated with Ringer's solution containing DCFH-DA (10 μM) for 30 minutes at room temperature. DCF-loaded cells were mounted on MUST and imaged using confocal line-scanning microscopy at 2 ms/line with very low laser intensity to prevent artifactual amplification of the signal due to light oxidation. DCF fluorescence signals were processed as described (16). The NOX2 specific inhibitor gp91dsTAT (2 μM), NOX inhibitor fulvene-5 (5 μM) and nitric oxide synthase inhibitor L-NAME (1 mM) was used to verify the source of ROS. Interrogation of cytoskeletal involvement in stretch dependent ROS or Ca^2+ influx was done with pharmacological methods.

Piezo1 = conditions: cited from earlier work
wild-type FDB fibers [8] = assay: Stretch activated calcium influx, Mn quench assay; conditions: parthenolide 10 uM 2 hrs, Gp91ds-TAT 1 uM 30 minutes
Piezo2 = Piezo2 (Homo sapiens, UniProt Q9H5I5); conditions: cited from earlier work
Sequence of Piezo2 (Q9H5I5 whole entry, species assumed): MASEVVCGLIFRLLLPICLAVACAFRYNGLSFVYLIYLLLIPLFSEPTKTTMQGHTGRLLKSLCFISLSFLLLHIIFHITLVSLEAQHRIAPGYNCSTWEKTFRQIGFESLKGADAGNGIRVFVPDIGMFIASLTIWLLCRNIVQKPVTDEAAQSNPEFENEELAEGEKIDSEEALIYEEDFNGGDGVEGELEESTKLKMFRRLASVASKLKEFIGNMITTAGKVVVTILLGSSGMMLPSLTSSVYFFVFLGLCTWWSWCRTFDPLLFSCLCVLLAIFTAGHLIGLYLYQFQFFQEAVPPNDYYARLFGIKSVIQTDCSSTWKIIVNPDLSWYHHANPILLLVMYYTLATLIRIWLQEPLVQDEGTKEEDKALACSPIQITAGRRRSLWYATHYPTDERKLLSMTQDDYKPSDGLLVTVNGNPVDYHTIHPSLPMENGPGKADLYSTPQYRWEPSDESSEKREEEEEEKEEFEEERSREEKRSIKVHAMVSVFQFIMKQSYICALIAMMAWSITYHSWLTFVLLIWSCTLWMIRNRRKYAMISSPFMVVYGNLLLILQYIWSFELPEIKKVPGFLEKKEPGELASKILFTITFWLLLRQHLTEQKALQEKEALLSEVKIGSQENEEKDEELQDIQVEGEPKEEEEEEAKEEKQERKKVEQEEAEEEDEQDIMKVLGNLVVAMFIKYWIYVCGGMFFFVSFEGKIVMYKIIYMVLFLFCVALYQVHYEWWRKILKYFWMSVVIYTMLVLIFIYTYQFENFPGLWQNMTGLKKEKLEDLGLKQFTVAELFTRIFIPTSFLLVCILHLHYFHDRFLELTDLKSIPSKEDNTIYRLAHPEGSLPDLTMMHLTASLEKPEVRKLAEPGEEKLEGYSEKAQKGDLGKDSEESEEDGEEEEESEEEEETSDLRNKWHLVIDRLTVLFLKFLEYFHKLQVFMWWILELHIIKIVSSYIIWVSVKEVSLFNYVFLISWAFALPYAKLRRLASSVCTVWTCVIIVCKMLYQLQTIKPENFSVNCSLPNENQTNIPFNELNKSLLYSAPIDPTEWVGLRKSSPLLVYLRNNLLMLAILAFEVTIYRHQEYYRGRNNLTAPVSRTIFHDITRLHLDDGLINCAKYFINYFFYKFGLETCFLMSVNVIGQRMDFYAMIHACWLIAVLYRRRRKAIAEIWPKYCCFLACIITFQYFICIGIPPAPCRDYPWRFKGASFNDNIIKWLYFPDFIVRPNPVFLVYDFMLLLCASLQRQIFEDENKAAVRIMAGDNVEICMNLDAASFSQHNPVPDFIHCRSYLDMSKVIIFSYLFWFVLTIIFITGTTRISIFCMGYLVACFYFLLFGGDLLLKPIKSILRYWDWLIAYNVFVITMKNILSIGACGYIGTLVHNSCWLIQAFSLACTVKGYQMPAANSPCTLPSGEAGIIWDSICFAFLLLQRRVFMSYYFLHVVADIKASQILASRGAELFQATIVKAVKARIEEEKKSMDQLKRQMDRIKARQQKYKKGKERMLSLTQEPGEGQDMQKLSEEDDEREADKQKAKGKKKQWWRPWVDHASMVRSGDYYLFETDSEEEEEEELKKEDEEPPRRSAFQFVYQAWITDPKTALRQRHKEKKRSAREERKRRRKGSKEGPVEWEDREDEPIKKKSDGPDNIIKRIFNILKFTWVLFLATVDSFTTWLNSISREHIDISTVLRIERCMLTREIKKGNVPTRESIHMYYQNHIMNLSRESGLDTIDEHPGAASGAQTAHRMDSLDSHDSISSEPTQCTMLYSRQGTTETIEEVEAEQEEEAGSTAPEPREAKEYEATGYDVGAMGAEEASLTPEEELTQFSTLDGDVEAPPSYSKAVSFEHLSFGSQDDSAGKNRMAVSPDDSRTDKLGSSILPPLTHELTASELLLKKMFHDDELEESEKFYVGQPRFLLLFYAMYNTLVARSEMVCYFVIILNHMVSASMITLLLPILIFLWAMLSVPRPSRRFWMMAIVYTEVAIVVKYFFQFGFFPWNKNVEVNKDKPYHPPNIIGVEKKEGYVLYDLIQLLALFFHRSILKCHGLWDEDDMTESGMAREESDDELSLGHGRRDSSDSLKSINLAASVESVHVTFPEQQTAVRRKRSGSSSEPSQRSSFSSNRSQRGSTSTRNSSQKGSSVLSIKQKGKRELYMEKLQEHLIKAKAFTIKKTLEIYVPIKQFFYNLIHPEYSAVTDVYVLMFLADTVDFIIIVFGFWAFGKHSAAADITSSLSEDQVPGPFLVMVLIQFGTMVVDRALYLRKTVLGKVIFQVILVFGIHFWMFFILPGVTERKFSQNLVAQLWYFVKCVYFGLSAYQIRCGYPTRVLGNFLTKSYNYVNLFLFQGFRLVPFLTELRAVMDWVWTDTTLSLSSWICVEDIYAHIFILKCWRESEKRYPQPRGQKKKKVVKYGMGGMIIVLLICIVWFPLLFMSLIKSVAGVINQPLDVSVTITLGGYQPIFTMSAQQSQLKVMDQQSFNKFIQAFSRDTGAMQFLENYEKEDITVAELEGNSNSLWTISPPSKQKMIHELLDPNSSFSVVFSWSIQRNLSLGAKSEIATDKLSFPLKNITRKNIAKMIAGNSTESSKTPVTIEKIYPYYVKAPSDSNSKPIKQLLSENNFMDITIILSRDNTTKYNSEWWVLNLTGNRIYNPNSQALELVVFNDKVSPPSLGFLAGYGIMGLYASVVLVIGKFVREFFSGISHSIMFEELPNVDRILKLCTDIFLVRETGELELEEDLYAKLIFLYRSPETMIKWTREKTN

## COc1cc(C(C)=O)ccc1O [apocynin]
wild-type (WT) mice; WT mice, gastrocnemius, 18 eccentric contractions
  eccentric contraction induced force drop in wild-type mice: significantly decreased the eccentric contraction induced force loss
Adult mdx mice [1]
  isometric contraction induced force loss: significant protection from force loss; also recorded: significantly decreased the isometric contraction induced force loss
NOX
  translocation of cytosolic p47phox and p67phox proteins / inactivation of NOX: inhibit translocation
Adult mdx mice [2]
  eccentric contraction induced force loss: significantly ameliorated the contraction induced force drop; also recorded: significant protection from force loss; also recorded: significantly reduced contraction induced force loss

## C/C1=C\CC[C@@]2(C)O[C@@H]2[C@H]2OC(=O)[C@H](CN(C)C)[C@@H]2CC1 [dimethylaminoparthenolide]
Adult mdx mice [1]
  isometric contraction induced force loss: significantly decreased the isometric contraction induced force loss
Adult mdx mice [2]
  eccentric contraction induced force drop (FIG. 13): ameliorated the force drop
Adult mdx mice [2]; listed as LC-1
  eccentric contraction induced force drop (FIG. 13): reduced eccentric contraction induced force drop

## CC(=O)O[C@H]1C(=O)[C@@]2(C)[C@H]([C@H](OC(=O)c3ccccc3)[C@]3(O)C[C@H](OC(=O)[C@H](O)[C@@H](NC(=O)c4ccccc4)c4ccccc4)C(C)=C1C3(C)C)[C@]1(OC(C)=O)CO[C@@H]1C[C@@H]2O [taxol]
[3]
  microtubule density (α-tubulin IHC): increased
[4]
  X-ROS in young fibers: exuberant X-ROS; also recorded: made X-ROS competent
Young WT muscle cells
  Ca2+ entry in young fibers: exuberant X-ROS and Ca^2+ entry

## COc1cc2c(c(OC)c1OC)-c1ccc(OC)c(=O)cc1[C@@H](NC(C)=O)CC2 [colchicine]
Adult mdx FDB myofibers [5]
  stretch dependent sarcolemmal Ca2+ influx: inhibited; also recorded: prevented; also recorded: little X-ROS and Ca^2+ entry; also recorded: ablated
[3]
  microtubule density (α-tubulin IHC): decreased; also recorded: ablated the majority of the cytoskeletal structure
wild-type FDB fibers [6]
  cytoskeletal stiffness: equally effective at decreasing cytoskeletal stiffness
wild-type (WT) mice; mouse, in vivo
  eccentric contraction induced force drop in wild-type mice: significantly decreased the eccentric contraction induced force loss
Adult mdx FDB myofibers [7]
  stretch-induced ROS production (X-ROS): prevented the increase in X-ROS; also recorded: little X-ROS; also recorded: ameliorated the stretch-induced ROS production
Adult mdx mice [1]
  isometric contraction induced force loss: significant protection from force loss; also recorded: significantly decreased the isometric contraction induced force loss
Adult mdx mice [2]
  eccentric contraction induced force loss: significantly ameliorated the contraction induced force drop; also recorded: significant protection from force loss; also recorded: significantly reduced contraction induced force loss

## GsMTx4: mechano-sensitive (stretch activated) channel blocker (GCLEFWWKCNPNDDKCCRPKLKCSKLFKLCNFSF; ends and bridges not checked; cysteine pairing not given here; UniProt Q7YT39 47-80, looked up)
Adult mdx FDB myofibers [5]
  stretch dependent sarcolemmal Ca2+ influx: inhibited; also recorded: prevented; also recorded: ablated
Piezo1
  inhibition of Piezo1 channel: inhibited
wild-type FDB fibers [8]
  stretch activated calcium influx: significantly reduced stretch activated Ca^2+ influx
Piezo2
  inhibition of Piezo2 channel: inhibited

## C/C1=C/C(=O)O[C@@H]2C[C@@H](CC[C@H](C)/C=C\C=C\CC1)O[C@@](O)([C@@H]1CSC(=O)N1)C2 [latrunculin A]
Adult mdx FDB myofibers [7]
  stretch-induced ROS production (X-ROS): had no effect
Adult mdx FDB myofibers [7]; listed as latrunuculin A
  stretch-induced ROS production (X-ROS): no significant effect

## COC(=O)[C@@H](N)CCCNC(=N)N[N+](=O)[O-] [L-NAME]
Adult mdx FDB myofibers [7]
  stretch-induced ROS production (X-ROS): had no effect

## fulvene-5
Adult mdx FDB myofibers [7]
  stretch-induced ROS production (X-ROS): verified NOX2 as the source of the stretch dependent ROS
Adult mdx FDB myofibers [7]; listed as Fulvene 5
  stretch-induced ROS production (X-ROS): effective at abrogating X-ROS

## CCN(CC)CCCC(C)Nc1nc(C)cc(Nc2ccc3nc(C)cc(N)c3c2)n1 (racemic) [Rac1 inhibitor]
Adult mdx FDB myofibers [7]
  stretch-induced ROS production (X-ROS): effective at abrogating X-ROS; also recorded: ameliorated the stretch-induced ROS production
